Measurements published in ChEMBL document CHEMBL3046364, “Influence of 1, 3, 5-Triazine Compounds on Ammonia Oxidizing Activity of Cell-Free Extracts from Nitrosomonas europaea” (J Pestic Sci, 2002).

Test system: Nitrosomonas europaea
Assay: Inhibition of ammonia oxidation in cell suspensions of Nitrosomonas europaea ATCC 25978 assessed as oxygen consumption
Assay type: functional, organism-based
Conditions: read-out: pI50 (converted)

| Structure (SMILES) | IC50 [µM] |
| --- | --- |
| Nc1nc(C(Cl)(Cl)Cl)nc(C(Br)(Br)Br)n1 | 0.0759 |
| CNc1nc(C)nc(C(Cl)(Cl)Cl)n1 | 3.55 |
| Cc1nc(N)nc(C(Cl)(Cl)Cl)n1 | 4.9 |

The next lines start with the values.

| IC50 [µM] | Structure (SMILES) |
| --- | --- |
| 2 | CCNc1nc(C)nc(C(Cl)(Cl)Cl)n1 |
| 21.9 | CCCCCCCCCCCCCCNc1nc(C)nc(C(Cl)(Cl)Cl)n1 |
